Source: PMC5269458 (Metallomics : integrated biometal science, 2017)
In brackets after ≈: the same amount, converted by molar mass. Read-outs that look alike come from different tables or passages of the source. Marks after values point to notes of the source that are not given here.

Tests used:
[1] = system: wild-type C. neoformans H99; assay: Growth inhibition; format: cell-based, Cryptococcus neoformans; details: for Minimum inhibitory concentration (MIC) / MIC: 30 °C; for effect of supplemental Cu on the growth inhibition by the compound: 1 mM Cu, high compound concentration (100 μM; CQ 50 μM); for MIC: Cryptococcus neoformans, read-out: Minimum inhibitory concentration (MIC), supplemental [Cu] 1 mM (CuSO4)
[2] = system: ctr1Δctr4Δ mutant strain of C. neoformans; assay: Growth recovery of Cu-import deficient mutant in YPEG medium; format: cell-based, Cryptococcus neoformans; details: YPEG medium without supplemental Cu, micromolar compound, 48 h
[3] = system: WT C. neoformans; details: with 10 μM Cu; cited from earlier work
[4] = Conditional Cu; format: binding; details: for Cu(II) log KML2: conditional, universal buffer pH 7.4, competition with PAR
[5] = system: ctr1Δctr4Δ mutant strain of C. neoformans; details: YPEG medium; cited from earlier work
[6] = Calcein competition assay for Cu; format: binding; details: 100 μM compound; HEPES pH 7.4 and SC medium pH 4.5
[7] = pH 7.4; ref Smith, R. M.; Martell, A. E.; Motekaitis, R. J, 2007; cited from earlier work
[8] = system: C. neoformans wild type, H99 cells; format: cell-based, Cryptococcus neoformans; details: SC medium; for cell-associated Cu, Fe and Zn content: 10 μM ligand co-incubated with 10 μM CuSO4, 1 h
[9] = Conditional Cu; format: binding; details: pH 7.4, anaerobic
[10] = no supplemental Cu ([Cu] 0 mM), SC medium, 48 h
[11] = negative log of free [Cu] at pH 7.4, total ligand 10 μM, total Cu 1 μM

Cc1cc(-c2ccc(S(=O)(=O)O)cc2)c2ccc3c(-c4ccc(S(=O)(=O)O)cc4)cc(C)nc3c2n1 [BCS, bathocuproine disulfonic acid]
Minimum inhibitory concentration (MIC) [1, 10]: higher than 100 μM

Oc1c(I)cc(Cl)c2cccnc12 [CQ, clioquinol]
restoration of growth of ctr1Δctr4Δ mutant [2]: unable to restore growth | effect of supplemental Cu on the growth inhibition by the compound [1]: completely abrogated | MIC ([1]; 48 h, SC medium, 48 h): > 50 µM

Oc1cccc2cccnc12 [Compound 8HQ, 8-hydroxyquinoline]
fungicidal activity (viable fungi) [3]: absence of detectable viable fungi | pCu(II) ([4]; pH 7.4): 18.7 | effect of added Ag(I) on MIC ([1]; 10 μM supplemental Ag(I), 48 h): no effect | effect of added Cu(II) on MIC ([1]; 10 μM supplemental Cu(II), 48 h): significant decrease | effect of added Fe(III) on MIC ([1]; 10 μM supplemental Fe(III), 48 h): did not significantly affect | effect of added Zn(II) on MIC ([1]; 10 μM supplemental Zn(II), 48 h): did not significantly affect | MIC ([1]; 48 h, SC medium, 48 h): 6 µM (≈ 0.871 µg/mL) | Minimum inhibitory concentration (MIC) [1, 10]: >100 µM | restoration of growth of ctr1Δctr4Δ mutant [5]: recover growth | competition with calcein for Cu(II) [6]: largest pH dependence | Cu(II) log KML2 [7]: 22.9 ± 0.1 ^a

CCN(CC)C(=S)SSC(=S)N(CC)CC [DSF, disulfiram]
restoration of growth of ctr1Δctr4Δ mutant [2]: restored to near wild type levels | MIC ([1]; 48 h, SC medium, 48 h): 6 µM (≈ 1.78 µg/mL)

Cc1c(O)c(=O)ccn1C [Dfp, deferiprone]
restoration of growth of ctr1Δctr4Δ mutant [2]: unable to restore growth | Cu(II) log KML2 [4]: 15.3 ± 0.3 | pCu(II) [4, 11]: 11.1 | Minimum inhibitory concentration (MIC) ([1]; supplemental [Cu] 1 mM (CuSO4), SC medium, 48 h): >100 µM | cell-associated Cu, Fe and Zn content [8]: did not dramatically alter cellular metal content | cellular metal content compared to the other conditions ([8]; 10 μM ligand, 1 h): decreased cellular metal content | competition for Cu(I) with BCA or ferrozine [9]: did not compete

O=C(O)CN(CCN(CC(=O)O)CC(=O)O)CC(=O)O [EDTA, ethylenediamine tetraacetic acid]
growth compared to no treatment at 48 h ([1]; 100 μM compound, no supplemental Cu, SC medium): decrease in growth | effect of supplemental Cu on the growth inhibition by the compound [1]: reversed

Cc1occc(=O)c1O [Mal, maltol]
restoration of growth of ctr1Δctr4Δ mutant [2]: unable to restore growth | Cu(II) log KML2 [4]: 12.2 ± 0.3 | pCu(II) [4, 11]: 8.0 | cell-associated Cu, Fe and Zn content [8]: did not dramatically alter cellular metal content | competition for Cu(I) with BCA or ferrozine [9]: did not compete
